Measured values from patent US11504075B2, “System, methods, and devices for calculating hypoxic fraction and equilibration rate of small molecular weight tracers using dynamic imaging” (UNIVERSITY HEALTH NETWORK, priority 2017, dated 2022).
Values joined by “and” are separate entries in the source; they are usually repeats but may differ in a detail not shown here. Equal values may be shown once.

Assays:
[1] = in most tissue; FAZA and similarly sized molecules; cited from earlier work
[2] = test system: pancreatic ductal adenocarcinoma tumours; test: Dynamic FAZA-PET imaging with two-tissue compartment model analysis in patients with pancreatic ductal adenocarcinoma; format: in vivo, human (patients)
Description: In an example experiment, the pharmacokinetics of FAZA in twenty patients with pancreatic ductal adenocarcinoma (PDAC) were modeled, applying principles of diffusive equilibration to interpret transport data calculated from a standard two-tissue compartment model.
Data was taken from twenty patients with biopsy-confirmed pancreatic ductal adenocarcinoma and FAZA-PET scans. Dynamic PET imaging scans were acquired over one hour following injection of FAZA. The one hour time-activity curves (TAC1) were each binned into thirty-four frames: twelve ten-second frames, followed by eight thirty-second frames, followed by seven two-minute frames, followed by seven five-minute frames. Patients returned for a static PET scan at two hours. CT scans used for co-registration were taken at the beginning of the dynamic and static PET scans.
PET activity data was obtained for regions of interest (ROIs) contoured using co-registered CT images. Tumour ROIs were contoured by a radiologist using the CT scan at two hours. This was co-registered manually to the initial CT scan and the two CT ROI sets were co-registered to the dynamic and static PET scans. In order to minimize effects resulting from high liver uptake of FAZA, aorta ROIs were contoured from the same range of PET/CT slices (along the cranial-caudal axis) as the tumour ROIs. At the level of the pancreas, the aorta is between 1.5 and 2 cm in diameter; to minimize partial volume effects, ROIs in the aorta were restricted to 0.75 cm in diameter and combined so that at least twenty-five PET voxels (3.9×3.9×3.3 mm^3 each) were imaged.
Dynamic PET TACs of FAZA were analyzed using the two-tissue compartment model:
Here, the concentration of tracer in the extravascular space of an imaged region has been partitioned into an unbound, diffusing component Cd as well as a component Cb that is bound by hypoxia. CIn is the “input” function, which was taken to be the imaged tracer concentration in the aorta, as described above. As noted earlier, k1 and k2 are the vascular influx and efflux coefficients and k3 is the tracer trapping rate. The total tracer concentration in an imaged region is C(t)=vbCIn(t)+(1−vb)[Cd(t)+Cb(t)], (5) where vb is the volume fraction occupied by blood in the region of interest. The above model was fitted to both the one-hour TACs (TAC1) as well as the combined two-hour TAC (TAC2) comprising the one-hour TACs plus static scans at two hours (in part to assess co-registration errors, which should be greater for TAC2). Coefficients (vb, k1, k2, and k3) were determined by minimizing
[formula] where Cmodel(ti) are the model activity values [Eqs. (3)-(5)] and Cdata(ti) are the measured values acquired during the N discrete time frames; N=34 for TAC1 and N=35 for TAC2. […] Equation 6 can be minimized with Cmodel(ti) calculated using trapezoidal integration.
An important tissue transport quantity is the distribution volume:
It represents the volume fraction of an imaged ROI in which tracer initially fills; i.e., rapidly equilibrates in. Patlak's formula,
To account for the unexpected correlations between k3 and vd, a model (shown schematically in FIG. 23) may be used in which an imaged voxel is comprised of two tissue types: one in which tracer reaches diffusive equilibration rapidly (with concentration C^(r)), and one in which it reaches equilibrium slowly (with concentration C^(s)): Cd(t)=vsCd^(s)+(1−vs)Cd^(r)(t). (11)
The factors of 1−vs and vs here ensure detailed balance amongst the compartments. kb is the binding rate due to hypoxia and keq represents the equilibration rate in the regions of slow-equilibration. This may be on the order of (0.1→1) hr-^1 when equilibration is driven by diffusion; see Eq. (2).
To distinguish kb and Keq in k3, voxel-scale k3 values were arranged into bins based on distribution volume values. […]

SMILES: O=[N+]([O-])c1nccn1[C@H]1O[C@H](CF)[C@@H](O)[C@@H]1O [FAZA, fluoroazomycinarabinoside]
- diffusivity D [1]: ~10 μm^2/s
- mean (population-averaged) equilibration rate keq in slow-equilibrating regions ([2]; all twenty patients, standard deviation 0.29 hrs^−1 across patients): 0.44 h⁻¹ and ~0.44 ± 0.29 h⁻¹
- equilibration rate keq ([2]; patient 1, fit of voxel-scale Keq to Eq. (18)): 0.45 h⁻¹
- equilibration rate keq ([2]; patient 2, fit of voxel-scale Keq to Eq. (18)): 0.52 h⁻¹
- average distribution volume of tumour ([2]; resected tumour exhibiting abundant apical mucin (FIG. 12 right)): 0.76
- average distribution volume of tumour ([2]; resected tumour exhibiting little mucin (FIG. 12 left)): 0.92
- vascular influx rate k1, population average of tumour-scale values ([2]; twenty PDAC patients): ~0.3 min⁻¹
